Measured values taken from patent US12351580B2, “NLRP3 modulators” (Innate Tumor Immunity, Inc., priority 2017, dated 2025).
Where a name gives a salt, the structure may show the parent alone.

Molecular target: T1, hNLRP3 (Homo sapiens, UniProt Q96P20)
T1 construct: THP-1 cells were purchased from the American Type Culture Collection; host or cells: THP-1 cells, PMA-differentiated
Experiment: Measurement of IL-1β production in PMA-differentiated THP-1 cells (hNLRP3 agonist; ELISA, alternative and hTRF procedures)
Type: cell-based
In short: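 PMA-differentiated THP-1 cells (PMA […] 24 h, 20 μg/ml overnight, or 50 ng/ml overnight, by procedure) replated in RPMI with 2% FBS and exposed to compound (e.g. 100–0.1 μM, 1% DMSO; hTRF format top 10 μM) for 4 h, 2 h, or 2 h respectively. Supernatant IL-1β measured by ELISA, or by hTRF with antibodies diluted 1:40.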

T1 sequence (Q96P20 whole entry): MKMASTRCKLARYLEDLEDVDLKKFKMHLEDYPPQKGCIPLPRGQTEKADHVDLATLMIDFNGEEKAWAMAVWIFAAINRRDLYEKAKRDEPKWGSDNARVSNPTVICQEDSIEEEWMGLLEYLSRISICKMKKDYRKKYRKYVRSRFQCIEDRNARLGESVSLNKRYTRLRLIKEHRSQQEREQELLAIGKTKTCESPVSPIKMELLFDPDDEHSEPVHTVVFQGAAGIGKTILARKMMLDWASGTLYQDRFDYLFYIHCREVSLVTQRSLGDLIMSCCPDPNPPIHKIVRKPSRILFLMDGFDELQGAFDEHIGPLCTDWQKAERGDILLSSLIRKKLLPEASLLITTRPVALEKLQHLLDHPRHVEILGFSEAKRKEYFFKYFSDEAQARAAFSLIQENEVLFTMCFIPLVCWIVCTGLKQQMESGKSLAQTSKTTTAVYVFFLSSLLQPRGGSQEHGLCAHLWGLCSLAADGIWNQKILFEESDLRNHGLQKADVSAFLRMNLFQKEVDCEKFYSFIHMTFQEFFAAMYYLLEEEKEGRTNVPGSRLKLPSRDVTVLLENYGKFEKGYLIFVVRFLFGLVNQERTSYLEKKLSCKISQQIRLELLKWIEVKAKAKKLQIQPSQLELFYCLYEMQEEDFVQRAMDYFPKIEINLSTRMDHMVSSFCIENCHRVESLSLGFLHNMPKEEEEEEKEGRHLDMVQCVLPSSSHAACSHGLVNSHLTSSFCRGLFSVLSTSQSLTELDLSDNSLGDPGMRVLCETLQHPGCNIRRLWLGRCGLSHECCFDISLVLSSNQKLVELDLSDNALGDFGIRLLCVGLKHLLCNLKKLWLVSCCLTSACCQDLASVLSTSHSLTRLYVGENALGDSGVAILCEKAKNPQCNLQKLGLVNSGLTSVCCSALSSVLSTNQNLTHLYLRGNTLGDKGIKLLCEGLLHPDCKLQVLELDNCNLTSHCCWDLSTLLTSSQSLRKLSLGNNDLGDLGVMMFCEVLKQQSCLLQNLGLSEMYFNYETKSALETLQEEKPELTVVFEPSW

Row | SMILES | EC50 [nM]
1 | CCNCc1nc2c(N)nc3cc(-c4cc[nH]n4)ccc3c2[nH]1 [Compound 101, 2-[(Ethylamino)methyl]-7-(1H-pyrazol-3-yl)-1H-imidazo[4,5-c]quinolin-4-amine hydrochloride] | 270
2 | CC(=O)N(C)Cc1nc2c(N)nc3cc(-n4cccn4)ccc3c2[nH]1 [Compound 102, N-((4-Amino-7-(1H-pyrazol-1-yl)-1H-imidazo[4,5-c]quinolin-2-yl)methyl)-N-methylacetamide] | 1600
3 | CN(Cc1nc2c(N)nc3cc(-n4cccn4)ccc3c2[nH]1)S(C)(=O)=O [Compound 119] | 1380
4 | CN(Cc1nc2c(N)nc3cc(-c4cc[nH]n4)ccc3c2[nH]1)C(=O)C1CC1 [Compound 120] | 1690
5 | CCN(Cc1nc2c(N)nc3cc(-c4cc[nH]n4)ccc3c2n1C)C(C)=O [Compound 121] | 1820
6 | CCC(=O)N(C)Cc1nc2c(N)nc3cc(-c4cc[nH]n4)ccc3c2[nH]1 [Compound 122] | 1400
7 | CCN(Cc1nc2c(N)nc3cc(-c4cc[nH]n4)ccc3c2[nH]1)S(C)(=O)=O [Compound 124] | 2400
8 | CCC(=O)N(CC)Cc1nc2c(N)nc3cc(-c4cc[nH]n4)ccc3c2[nH]1 [Compound 125] | 2100
9 | CCN(Cc1nc2c(N)nc3cc(-c4cc[nH]n4)ccc3c2[nH]1)C(=O)NC [Compound 128] | 2900
10 | CC(=O)N(C)Cc1nc2c(N)nc3cc(-c4cc[nH]n4)ccc3c2[nH]1 [Compound 129] | 3600
11 | CCN(Cc1nc2c(N)nc3cc(-n4cccn4)ccc3c2[nH]1)C(N)=O [Compound 130] | 3300
12 | NCc1nc2c(N)nc3cc(-c4cc[nH]n4)ccc3c2[nH]1 [Compound 131] | 3500
13 | CCN(Cc1nc2c(N)nc3cc(-n4nccn4)ccc3c2[nH]1)C(C)=O [Compound 132] | 3500
14 | CC(c1nc2c(N)nc3cc(-c4cccnc4)ccc3c2[nH]1)N1CCCC1=O (stereo not shown) [Compound 138] | 6700
15 | CC(=O)N(Cc1nc2c(N)nc3cc(-c4cc[nH]n4)ccc3c2[nH]1)C(C)C [Compound 140] | 7300
16 | Nc1nc2ccc(Cl)cc2c2[nH]c(CN3CCCC3=O)nc12 [Compound 141] | 9000
17 | CC(C)(C)OC(=O)NCc1nc2c(N)nc3cc(-c4cc[nH]n4)ccc3c2[nH]1 [Compound 142] | 9100
18 | Nc1nc2cc(Cl)ccc2c2[nH]c(CN3CCCC3=O)nc12 [Compound 143] | 9400
19 | Nc1nc2cc(-c3ccc(Cl)nc3)ccc2c2[nH]c(CN3CCCC3=O)nc12 [Compound 153] | 12000
20 | CCNCc1nc2c(N)nc3cc(OC)ccc3c2[nH]1 [Compound 154] | 16100
21 | CCN(Cc1nc2c(N)nc3cc(-c4ncc[nH]4)ccc3c2[nH]1)C(=O)OC(C)(C)C [Compound 155] | 17400
22 | Nc1nc2cc(-n3ncc4ccccc43)ccc2c2[nH]c(CN3CCCC3=O)nc12 [Compound 157] | 23400
23 | CCN(Cc1nc2c(N)nc3cc(OC)ccc3c2[nH]1)C(C)=O [Compound 158, N-((4-Amino-7-methoxy-1H-imidazo[4,5-c]quinolin-2-yl)methyl)-N-ethylacetamide] | 24500
24 | CCN(Cc1nc2c(N)nc3cc(Cl)c(Cl)cc3c2[nH]1)C(C)=O [Compound 159] | 25900
25 | CCNCc1nc2c(N)nc3cc(-c4ncc[nH]4)ccc3c2[nH]1 [Compound 162] | 42000
26 | CCN(Cc1nc2c(N)nc3cc(-c4cc[nH]n4)ccc3c2[nH]1)CC(C)C [Compound 453, 2-{[ethyl(2-methylpropyl)amino]methyl}-7-(1H-pyrazol-3-yl)-1H-imidazo[4,5-c]quinolin-4-amine] | 710
27 | CCN(CC)C(=O)N(CC)Cc1nc2c(N)nc3cc(-c4cc[nH]n4)ccc3c2[nH]1 [Compound 454, 1-{[4-amino-7-(1H-pyrazol-3-yl)-1H-imidazo[4,5-c]quinolin-2-yl]methyl}-1,3,3-triethylurea] | 740

Results, then the compound that gave them:

Row | EC50 [nM] | SMILES
28 | 2000 | CCN(Cc1nc2c(N)nc3cc(-c4cc[nH]n4)ccc3c2[nH]1)C(=O)N1CCOCC1 [Compound 455, N-{[4-amino-7-(1H-pyrazol-3-yl)-1H-imidazo[4,5-c]quinolin-2-yl]methyl}-N-ethylmorpholine-4-carboxamide]
29 | 2200 | CCN(Cc1nc2c(N)nc3cc(-c4cc[nH]n4)ccc3c2[nH]1)C(=O)NC(C)(C)C [Compound 456, 1-{[4-amino-7-(1H-pyrazol-3-yl)-1H-imidazo[4,5-c]quinolin-2-yl]methyl}-3-tert-butyl-1-ethylurea]
30 | 6600 | CCNC(=O)N(CC)Cc1nc2c(N)nc3cc(-c4cc[nH]n4)ccc3c2[nH]1 [Compound 457, 1-{[4-amino-7-(1H-pyrazol-3-yl)-1H-imidazo[4,5-c]quinolin-2-yl]methyl}-1,3-diethylurea]
31 | 2100 | CCN(Cc1nc2c(N)nc3cc(-c4cc[nH]n4)ccc3c2[nH]1)S(=O)(=O)N(C)C [Compound 458, 2-{[(dimethylsulfamoyl)(ethyl)amino]methyl}-7-(1H-pyrazol-3-yl)-1H-imidazo[4,5-c]quinolin-4-amine]
32 | 6700 | CCN(Cc1nc2c(N)nc3cc(-c4cc[nH]n4)ccc3c2[nH]1)S(=O)(=O)C(C)C [Compound 459, N-{[4-amino-7-(1H-pyrazol-3-yl)-1H-imidazo[4,5-c]quinolin-2-yl]methyl}-N-ethylpropane-2-sulfonamide]
33 | 1500 | CCCS(=O)(=O)N(CC)Cc1nc2c(N)nc3cc(-c4cc[nH]n4)ccc3c2[nH]1 [Compound 460, N-{[4-amino-7-(1H-pyrazol-3-yl)-1H-imidazo[4,5-c]quinolin-2-yl]methyl}-N-ethylpropane-1-sulfonamide]
34 | 5500 | CCNCc1nc2c(N)nc3cc(-c4ccn[nH]4)ccc3c2n1CCO [Compound 462, 2-[4-Amino-2-[(ethylamino)methyl]-7-(1H-pyrazol-5-yl)-1H-imidazo[4,5-c]quinolin-1-yl]ethan-1-ol]
35 | 220 | CCn1c(CN2CCCC2=O)nc2c(N)nc3cc(-c4cccs4)ccc3c21 [Compound 463, 1-{[4-amino-1-ethyl-7-(thiophen-2-yl)-1H-imidazo[4,5-c]quinolin-2-yl]methyl}pyrrolidin-2-one]
36 | 240 | CCNCc1nc2c(N)nc3cc(-c4ccn[nH]4)ccc3c2n1CC [Compound 464, 1-ethyl-2-[(ethylamino)methyl]-7-(1H-pyrazol-5-yl)-1H-imidazo[4,5-c]quinolin-4-amine]
37 | 1000 | CCn1c(CN2CCCC2=O)nc2c(N)nc3cc(-n4cccn4)ccc3c21 [Compound 465, 1-{[4-amino-1-ethyl-7-(1H-pyrazol-1-yl)-1H-imidazo[4,5-c]quinolin-2-yl]methyl}pyrrolidin-2-one]
38 | 1100 | CCn1c(CN2CCCC2=O)nc2c(N)nc3cc(-c4ccn[nH]4)ccc3c21 [Compound 466, 1-{[4-amino-1-ethyl-7-(1H-pyrazol-5-yl)-1H-imidazo[4,5-c]quinolin-2-yl]methyl}pyrrolidin-2-one]
39 | 1200 | CCNCc1nc2c(N)nc3cc(-n4cccn4)ccc3c2n1CC [Compound 467, 1-ethyl-2-((ethylamino)methyl)-7-(1H-pyrazol-1-yl)-1H-imidazo[4,5-c]quinolin-4-amine]
40 | 2100 | CCNCc1nc2c(N)nc3cc(-c4cccs4)ccc3c2n1CC [Compound 468, 1-ethyl-2-[(ethylamino)methyl]-7-(thiophen-2-yl)-1H-imidazo[4,5-c]quinolin-4-amine]
41 | 670 | Nc1nc2cc(-c3cccs3)ccc2c2c1nc(CN1CCCC1=O)n2CCO [Compound 469, 1-{[4-amino-1-(2-hydroxyethyl)-7-(thiophen-2-yl)-1H-imidazo[4,5-c]quinolin-2-yl]methyl}pyrrolidin-2-one]
42 | 690 | CCC(=O)N(CC)Cc1nc2c(N)nc3cc(-c4cccs4)ccc3c2n1CCO [Compound 470, N-{[4-amino-1-(2-hydroxyethyl)-7-(thiophen-2-yl)-1H-imidazo[4,5-c]quinolin-2-yl]methyl}-N-ethylpropanamide]
43 | 1200 | CCNCc1nc2c(N)nc3cc(-c4cccs4)ccc3c2n1CCO [Compound 471, 2-{4-amino-2-[(ethylamino)methyl]-7-(thiophen-2-yl)-1H-imidazo[4,5-c]quinolin-1-yl}ethan-1-ol]
44 | 430 | CCN(Cc1nc2c(N)nc3cc(-c4cccs4)ccc3c2n1CC)C(C)=O [Compound 472, N-{[4-amino-1-ethyl-7-(thiophen-2-yl)-1H-imidazo[4,5-c]quinolin-2-yl]methyl}-N-ethylacetamide]
45 | 220 | CCC(=O)N(CC)Cc1nc2c(N)nc3cc(-c4ccn[nH]4)ccc3c2n1CC [Compound 473, N-{[4-amino-1-ethyl-7-(1H-pyrazol-5-yl)-1H-imidazo[4,5-c]quinolin-2-yl]methyl}-N-ethylpropanamide]
46 | 1200 | CCN(Cc1nc2c(N)nc3cc(-c4ccn[nH]4)ccc3c2n1CC)C(C)=O [Compound 474, N-{[4-amino-1-ethyl-7-(1H-pyrazol-5-yl)-1H-imidazo[4,5-c]quinolin-2-yl]methyl}-N-ethylacetamide]
47 | 23000 | CCC(=O)N(CC)Cc1nc2c(N)nc3cc(-c4ccn[nH]4)ccc3c2n1CCO [Compound 475, N-{[4-amino-1-(2-hydroxyethyl)-7-(1H-pyrazol-5-yl)-1H-imidazo[4,5-c]quinolin-2-yl]methyl}-N-ethylpropanamide]
48 | 6100 | CCN(Cc1nc2c(N)nc3cc(-n4cccn4)ccc3c2n1CCO)C(C)=O [Compound 476, N-{[4-amino-1-(2-hydroxyethyl)-7-(1H-pyrazol-1-yl)-1H-imidazo[4,5-c]quinolin-2-yl]methyl}-N-ethylacetamide]
49 | 6300 | CCNCc1nc2c(N)nc3cc(-n4cccn4)ccc3c2n1CCO [Compound 477, 2-[4-amino-2-[(ethylamino)methyl]-7-(1H-pyrazol-1-yl)-1H-imidazo[4,5-c]quinolin-l-yl]ethan-1-ol]
